Laboratory results reported in ChEMBL document CHEMBL3045856, “Synthesis antimicrobial and anticancer activity of N-arylmethylidene-piperazine-1-carbothiohydrazide” (Med Chem Res, 2013).

Key:
Vibrio cholerae = assay: Antimicrobial activity against Vibrio cholerae assessed as growth inhibition after 24 hr by cup-plate method; format: functional, organism-based
HL-60 = assay: Anticancer activity against Homo sapiens (human) HL60 cells after 48 hr by CC108 microcell counter analysis; format: functional, cell-based; settings: HL-60, 48 h
Pseudomonas aeruginosa = assay: Antimicrobial activity against Pseudomonas aeruginosa NCIM 2967 assessed as growth inhibition after 24 hr by serial double dilution method; format: functional, organism-based; settings: NCIM 2967, 24 h
Staphylococcus aureus = assay: Antimicrobial activity against Staphylococcus aureus NCIM 2079 assessed as growth inhibition after 24 hr by serial double dilution method; format: functional, organism-based; settings: NCIM 2079, 24 h
Aspergillus niger = assay: Antimicrobial activity against Aspergillus niger assessed as growth inhibition after 24 hr by cup plate method; format: functional, organism-based
Bacillus subtilis = assay: Antimicrobial activity against Bacillus subtilis NCIM 2921 assessed as growth inhibition after 24 hr by serial double dilution method; format: functional, organism-based; settings: NCIM 2921, 24 h
HBL-100 [1] = assay: Ratio of compound IC50 to methotrexate IC50 for Homo sapiens (human) HBL100 cells after 72 hr by MTT assay; format: functional
Candida albicans = assay: Antimicrobial activity against Candida albicans assessed as growth inhibition after 24 hr by serial double dilution method; format: functional, organism-based
HBL-100 [2] = assay: Anticancer activity against Homo sapiens (human) HBL100 cells after 72 hr by MTT assay; format: functional, cell-based; settings: HBL-100, 72 h
Escherichia coli = assay: Antimicrobial activity against Escherichia coli NCIM 2068 assessed as growth inhibition after 24 hr by serial double dilution method; format: functional, organism-based; settings: NCIM 2068, 24 h

`Oc1ccc(/C=N/NC(=S)N2CCNCC2)cc1` showed an IC50 (Vibrio cholerae) of 1.66 µM, an IC50 (HL-60) of 50 µM and an IC50 (Pseudomonas aeruginosa) of 1.63 µM. It also gave an IC50 (Staphylococcus aureus) of 1.7 µM, an IC50 (Aspergillus niger) of 1.97 µM and an IC50 (Bacillus subtilis; read-out: IC50) of 1.62 µM. The “Ratio IC50” value (HBL-100 [1]) was 4.5, the IC50 (Candida albicans; read-out: IC50) was 1.94 µM and the IC50 (HBL-100 [2]) was 0.18 µM. It also gave an IC50 (Escherichia coli) of 1.64 µM.
Compound `C/C(=N\NC(=S)N1CCNCC1)c1ccc(O)cc1` has an IC50 (Vibrio cholerae) of 1.59 µM, an IC50 (HL-60) of 60 µM and an IC50 (Pseudomonas aeruginosa) of 3.51 µM. It also gave an IC50 (Staphylococcus aureus) of 1.58 µM, an IC50 (Aspergillus niger) of 3.55 µM and an IC50 (Bacillus subtilis; read-out: IC50) of 3.49 µM. It also gave an IC50 (Candida albicans; read-out: IC50) of 2.56 µM, an IC50 (HBL-100 [2]) of 0.54 µM and an IC50 (Escherichia coli) of 3.48 µM.
`C/C(=N\NC(=S)N1CCNCC1)c1cccc([N+](=O)[O-])c1` showed an IC50 (Vibrio cholerae) of 0.86 µM, an IC50 (HL-60) of 62 µM and an IC50 (Pseudomonas aeruginosa) of 0.6 µM. The IC50 (Staphylococcus aureus) was 0.86 µM, the IC50 (Aspergillus niger) was 1.56 µM and the IC50 (Bacillus subtilis; read-out: IC50) was 0.32 µM. It also gave an IC50 (Candida albicans; read-out: IC50) of 2 µM, an IC50 (HBL-100 [2]) of 0.99 µM and an IC50 (Escherichia coli) of 0.57 µM.
`COc1ccc(/C=N/NC(=S)N2CCNCC2)cc1` showed an IC50 (Vibrio cholerae) of 1.53 µM, an IC50 (Pseudomonas aeruginosa) of 1.57 µM and an IC50 (Staphylococcus aureus) of 0.79 µM. For the same compound, the IC50 (Aspergillus niger) was 2.09 µM, the IC50 (Bacillus subtilis; read-out: IC50) was 0.66 µM and the IC50 (Candida albicans; read-out: IC50) was 2.15 µM. The IC50 (HBL-100 [2]) was 1.62 µM and the IC50 (Escherichia coli) was 1.59 µM.
`S=C(N/N=C/c1ccc(Cl)cc1)N1CCNCC1` showed an IC50 (Vibrio cholerae) of 0.6 µM, an IC50 (HL-60) of 69 µM and an IC50 (Pseudomonas aeruginosa) of 0.6 µM. The IC50 (Staphylococcus aureus) was 0.54 µM, the IC50 (Aspergillus niger) was 2.14 µM and the IC50 (Bacillus subtilis; read-out: IC50) was 0.13 µM. For the same compound, the IC50 (Candida albicans; read-out: IC50) was 1.85 µM, the IC50 (HBL-100 [2]) was 1.6 µM and the IC50 (Escherichia coli) was 1.52 µM.
`C/C(=N/NC(=S)N1CCNCC1)c1ccccc1` was tested, and the IC50 (Vibrio cholerae) was 1.17 µM, the IC50 (Pseudomonas aeruginosa) was 2.11 µM and the IC50 (Staphylococcus aureus) was 2.07 µM. The IC50 (Aspergillus niger) was 3.76 µM, the IC50 (Bacillus subtilis; read-out: IC50) was 1.78 µM and the IC50 (Candida albicans; read-out: IC50) was 3.75 µM. For the same compound, the IC50 (HBL-100 [2]) was 0.29 µM and the IC50 (Escherichia coli) was 1.76 µM.
`S=C(N/N=C/c1ccccc1)N1CCNCC1` gave an IC50 (Vibrio cholerae) of 2.23 µM, an IC50 (HL-60) of 63 µM and an IC50 (Pseudomonas aeruginosa) of 1.97 µM. For the same compound, the IC50 (Staphylococcus aureus) was 1.36 µM, the IC50 (Aspergillus niger) was 2.21 µM and the IC50 (Bacillus subtilis; read-out: IC50) was 0.93 µM. For the same compound, the IC50 (Candida albicans; read-out: IC50) was 1.85 µM, the IC50 (HBL-100 [2]) was 2.41 µM and the IC50 (Escherichia coli) was 3.91 µM.
For `C/C(=N\NC(=S)N1CCNCC1)c1ccc(Cl)cc1`, the IC50 (Vibrio cholerae) was 0.78 µM, the IC50 (Pseudomonas aeruginosa) was 0.71 µM and the IC50 (Staphylococcus aureus) was 1.04 µM. The IC50 (Aspergillus niger) was 3.32 µM, the IC50 (Bacillus subtilis; read-out: IC50) was 0.98 µM and the IC50 (Candida albicans; read-out: IC50) was 3.37 µM. It also gave an IC50 (HBL-100 [2]) of 0.26 µM and an IC50 (Escherichia coli) of 0.88 µM.
With `Cc1ccc(/C=N/NC(=S)N2CCNCC2)cc1` the IC50 (Vibrio cholerae) was 3.57 µM, the IC50 (HL-60) was 70 µM and the IC50 (Pseudomonas aeruginosa) was 1.7 µM. The IC50 (Staphylococcus aureus) was 1.66 µM, the IC50 (Aspergillus niger) was 3.79 µM and the IC50 (Bacillus subtilis; read-out: IC50) was 1.7 µM. It also gave an IC50 (Candida albicans; read-out: IC50) of 3.72 µM, an IC50 (HBL-100 [2]) of 0.8 µM and an IC50 (Escherichia coli) of 1.74 µM.
With `S=C(NN=C(c1ccccc1)c1ccccc1)N1CCNCC1` the IC50 (Vibrio cholerae) was 1.38 µM, the IC50 (Pseudomonas aeruginosa) was 1.44 µM and the IC50 (Staphylococcus aureus) was 1.33 µM. The IC50 (Aspergillus niger) was 1.62 µM, the IC50 (Bacillus subtilis; read-out: IC50) was 1.38 µM and the IC50 (Candida albicans; read-out: IC50) was 1.47 µM. The IC50 (HBL-100 [2]) was 0.34 µM and the IC50 (Escherichia coli) was 3.03 µM.
Work on `O=C(O)c1cn(C2CC2)c2cc(N3CCNCC3)c(F)cc2c1=O` [CIPROFLOXACIN] yielded an IC50 (Vibrio cholerae) of 0.2 µM, an IC50 (Pseudomonas aeruginosa) of 0.05 µM and an IC50 (Staphylococcus aureus) of 1.2 µM. It also gave an IC50 (Bacillus subtilis) of 4.7 µM.
For `OC(Cn1cncn1)(Cn1cncn1)c1ccc(F)cc1F` [FLUCONAZOLE], the IC50 (Aspergillus niger) was over 10 µM and the IC50 (Candida albicans) was 0.98 µM.
`CN(Cc1cnc2nc(N)nc(N)c2n1)c1ccc(C(=O)N[C@@H](CCC(=O)O)C(=O)O)cc1` [METHOTREXATE] gave an IC50 (HBL-100 [2]) of 0.04 µM.
